Read-outs that look alike come from different tables or passages of the source.
Experiments:
RIG-I = RIG-I activation in HEK-Lucia RIG-I reporter cells; format: cell-based
Experimental: (§1) LNPs are prepared and administered in vivo to mice as in Example 11(A,B). Blood is collected at appropriate time points, typically at intervals between 1-48 hours post-dose and terminal end point, and processed to serum or plasma per techniques well known in the art. Serum or plasma cytokine and chemokine levels are measured using V-PLEX cytokine and chemokine detection kits. Cytokine and chemokine levels are compared to animals treated with buffer alone as well as pre-dose sampling of the treatment animals. In some instances, the immune stimulation of capped mRNA is assessed after in vitro transfection to reporter cell lines such as HEK-Lucia RIG-I cell reporter model, which produces luciferase signal in the presence of IFN-stimulated response elements such as uncapped mRNA. This cell model is cultured and transfected as described in Example 7, and luciferase activity is measured using a luciferase activity kit and plate reader. It is known in the art that uncapped mRNA produces a RIG-I-dependent IFN immune response, and capped mRNA lessens this immune stimulation. […] The results of this example were compared using mRNA made with a commercially available 5′ end initiator, 1002a, as a reference.
RIG-I overexpressed reporter HEK293 cells were utilized to evaluate cap specific immune response. mRNA with different cap analogs were transfected to the reporter cells. This cell model is cultured and transfected as described in Example 7. The response was measured at 24 hours after transfection. RIG-I is a cytosolic pattern recognition receptor that is responsible for the type-1 interferon response and can respond to 5′ triphosphate of RNA.

T7 RNA polymerase [1] = biological target: T1, T7 RNA polymerase (Escherichia phage T7, UniProt P00573); format: biochemical; conditions: for mRNA full-length purity: ABE mRNA MA004, capillary gel electrophoresis; for amount of full-length mRNA produced: initiator-to-NTP ratio ranging from 1:1 down to 1:5
T1 sequence (P00573 whole entry): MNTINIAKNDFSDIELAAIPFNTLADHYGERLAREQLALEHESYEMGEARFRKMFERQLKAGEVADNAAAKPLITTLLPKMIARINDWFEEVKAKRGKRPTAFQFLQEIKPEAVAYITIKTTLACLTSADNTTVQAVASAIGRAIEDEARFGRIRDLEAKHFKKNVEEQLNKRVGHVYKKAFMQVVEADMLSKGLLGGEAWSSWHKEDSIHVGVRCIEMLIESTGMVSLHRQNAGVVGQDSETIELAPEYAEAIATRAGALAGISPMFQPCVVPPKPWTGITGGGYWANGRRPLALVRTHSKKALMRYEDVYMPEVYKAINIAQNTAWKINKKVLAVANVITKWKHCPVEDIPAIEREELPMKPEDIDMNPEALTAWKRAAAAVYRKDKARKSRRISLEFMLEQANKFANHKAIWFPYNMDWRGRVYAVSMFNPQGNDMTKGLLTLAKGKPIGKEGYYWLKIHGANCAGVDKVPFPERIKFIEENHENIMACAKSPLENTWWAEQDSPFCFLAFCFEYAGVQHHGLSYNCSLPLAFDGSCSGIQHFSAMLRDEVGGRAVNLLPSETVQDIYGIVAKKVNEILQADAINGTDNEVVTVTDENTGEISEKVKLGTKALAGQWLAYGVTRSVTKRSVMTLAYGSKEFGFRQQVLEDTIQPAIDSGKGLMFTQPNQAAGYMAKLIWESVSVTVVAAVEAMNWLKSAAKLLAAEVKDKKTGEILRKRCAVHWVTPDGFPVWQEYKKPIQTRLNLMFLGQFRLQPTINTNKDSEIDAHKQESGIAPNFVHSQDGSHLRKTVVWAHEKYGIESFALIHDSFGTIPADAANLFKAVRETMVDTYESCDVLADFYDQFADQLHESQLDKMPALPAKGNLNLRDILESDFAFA

T7 RNA polymerase [2] = biological target: T1, T7 RNA polymerase
[3] = test system: TNF-α, IFN-γ, IFN-α, IFN-β, MIP-1B, IP-10, IL-10, IL-6; assay: In vivo immunogenicity: serum cytokine and chemokine levels in mice; set-up: species or system mouse; conditions: LNPs 1 mg/kg and 3 mg/kg
Experimental: as §1
In vivo immunogenicity was quantified as described in Example 12. Mice were treated with LNPs at a level of 1 mg/kg and 3 mg/kg, and serum was collected 3 hours and 24 hours post-injection. […] For comparison, cytokine measurements were also completed for mRNA comprising commercially available 5′ end initiator 1002a.

T7 RNA polymerase [4] = biological target: T1, T7 RNA polymerase; conditions: for production yield for ABE encoding mRNA: ABE mRNA MA004, IVT with T7 polymerase, 37° C., about 1-4 hours, UV spectrometry; for mRNA production yield: ABE mRNA MA079, 4 mM analog, 90 minutes, UV absorption
NHP ANGPTL3 = assay: In vivo ABE base editing in NHP liver (LNP, NGS); conditions: LNP with sgRNA targeting NHP ANGPTL3 and ABE mRNA, FIG. 8
Experimental: Lipid nanoparticles (LNPs) are generated by microfluidic mixing using the Precision Nanosystems NanoAssemblr system according to the manufacturer's protocol, with some optimization for individual payloads. The resulting LNPs are filtered using 0.2-micron filters and stored at 4° C. or frozen at −80° C.
LNPs used in these studies were prepared with sgRNA targeting ANGPTL3 and ABE encoding mRNAs with 5′ end region motifs as described in Example 11A, comprising chemically synthesized sgRNAs targeting the NHP ANGPTL3 genes and ABE8.8 mRNA in a 1:1 weight ratio. LNPs were administered to NHP (n=3 per group) by one single intravenous infusion in a total volume of 6 mL/kg. Livers were collected 16 days post dose for NGS measurements of editing efficiency. […]
Paired-end reads are analyzed with the CRISPResso2 pipeline (Clement, K. et al., Nat. Biotech. 2019, 37, 224-226). Briefly, low-quality reads are filtered out, adapter sequences are trimmed from the reads, and the paired-end reads are merged and aligned to the amplicon sequence. The editing percentage is calculated as the number of reads supporting […], over the total number of aligned reads. For ABE, the editing percentage is calculated as the number of reads supporting […], over the total number of aligned reads. […]

cells = assay: Cas9 protein expression in cells (antibody detection); format: cell-based; conditions: 6 hours post transfection; low and high doses
Experimental: Protein expression is directly assessed via antibody detection of the Cas9 protein. The measured signal is compared to that of a recombinant Cas9 of known concentration to derive the Y-axis value. […] This is consistent at both low and high doses at 6 hours post transfection. At 24 hours after transfection, the potency difference between the analogs was less pronounced, but the trend generally remained consistent.

HeLa lysate = assay: Translation of luciferase mRNA in HeLa lysate in vitro translation kit; format: biochemical; conditions: luminescence
Experimental: HeLa cells are cultured in RPMI with 10% FBS at 37° C. under 5% CO2 atmosphere. Cells are plated into an appropriately sized well plate per manufacturer's recommended seeding conditions. After overnight incubation, cells are checked for monolayer formation and then transfected using a transfection agent such as MessengerMAX. Solution A: the desired amount of luciferase mRNA is diluted in OptiMEM and mixed with Solution B: MessengerMAX in OptiMEM. After mixing solutions A and B, the mixture is incubated at room temperature for 20 minutes, and then added dropwise to each well of cells. The cells are then incubated at 37° C. for 12-72 hours to allow for expression of mRNA into protein. Cells are harvested and prepared for measuring luciferase protein levels per Promega luciferase assay system protocol. […] For example, luciferase encoding mRNA with 5′ end region motif, 1007a, was added to a commercially available HeLa lysate in vitro translation kit to produce luciferase protein. Luciferase protein activity as measured by luminescent light production in the presence of a luciferin substrate, was measured with a luminescence-detecting plate reader. Relative light units measured per this assay are proportional to the amount of luciferase protein translated from mRNA. […]

[5] = test system: Primary human hepatocytes; assay: Luciferase expression in primary human hepatocytes; format: cell-based; conditions: 6 hours after transfection, 106.3 ng of mRNA dose
Excerpt: The harvested cell lysate was subjected to conditions to derive a quantifiable fluorescent signal. This signal was then compared to analog 1002a to determine how structural differences may be related to the changes in expression. Primary human hepatocytes were subjected to two different doses of mRNA encoding for the protein luciferase made using the indicated test analogs. A single RNA molecule may be interpreted by protein synthesis machinery multiple times, so an analog that may increase the frequency of interpretation may be desirable as a 5′ initiator. This frequency of interpretation, or translation efficiency, may be determined by measuring the amount of protein produced in a population of cells exposed to a known amount of RNA at a given point following that exposure. The duration of expression may also be assessed to determine how an analog may sustain the observed expression, as the RNA molecule is eventually decayed within the cell thereby destroying its protein-encoding capacity. […] Similar protein expression profiles was also observed at 24 hours post transfection (FIG. 17b).

T7 polymerase = T7 polymerase (Escherichia phage T7, UniProt P00573); conditions: J. Mol. Biol. (2007) 370, 256-268; read-out: Kd of T7 polymerase for the first initiating guanosine; cited from earlier work
Sequence of T7 polymerase (P00573 whole entry): as above

[6] = serum 24 hours post-injection, baseline = about pre-injection level

COC1C(OP([O-])(=S)OCC2OC(n3cnc4c(=O)[nH]c(N)nc43)C(O)C2O)C(COP(=O)(O)OP(=O)(O)OP(=O)(O)OCC2OC(n3c[n+](C)c4c(=O)[nH]c(N)nc43)C(O)C2O)OC1n1cnc2c(N)ncnc21 (stereo not drawn) [1007a, m^7G(ppp) Am(ps)G]
RIG-I activity as compared to uncapped mRNA (RIG-I; HEK-Lucia RIG-I cell reporter model, FIG. 9): reduced RIG-I activity
RIG-I activation as a result of the chemical modifications to the cap structure (RIG-I; HEK-Lucia RIG-I cell reporter model, reference 1002a): did not appear to increase RIG-I activation
mRNA full-length purity (T7 RNA polymerase [1]): about 88%
amount of full-length mRNA produced (T7 RNA polymerase [1]): did not reduce
capping efficiency (T7 RNA polymerase [2]; initiator-to-NTP ratio ranging from 1:1 down to 1:2.5): > 90%
cytokines (TNF-α, IFN-γ, IFN-α, IFN-β, MIP-1B, IP-10, IL-10, IL-6) ([3]; serum 3 hours post-injection): detectable
cytokines (TNF-α, IFN-γ, IFN-α, IFN-β, MIP-1B, IP-10, IL-10, IL-6) [3, 6]: returned to baseline
production yield for ABE encoding mRNA (T7 RNA polymerase [4]): about 3.3 mg per 1 ml of IVT reaction
mRNA production yield (T7 RNA polymerase [4]): ~4 mg/mL
base editing efficacy compared to mRNAs with 1002a 5′ end region motif (NHP ANGPTL3): lower or similar base editing efficacy
Cas9 expression (cells): largely similar among most analogs except 1007a_D1 and 1007a
luciferase activity relative to mRNA with initiator 1002a (HeLa lysate): around 2 ×

COC1C(O[P@@]([O-])(=S)OCC2OC(n3cnc4c(=O)[nH]c(N)nc43)C(O)C2O)C(COP(=O)(O)OP(=O)(O)OP(=O)(O)OCC2OC(n3c[n+](C)c4c(=O)[nH]c(N)nc43)C(O)C2O)OC1n1cnc2c(N)ncnc21 (stereo partly drawn) [1007a_D1, m^7G(ppp) Am(ps)G]
RIG-I response (RIG-I; RIG-I overexpressed reporter HEK293 cells, 24 hours after transfection, FIG. 14): lowest RIG-I response
mRNA full-length purity (FLP) (T7 RNA polymerase [1]; ABE mRNA MA079, 4 mM analog, 90 minutes, electrophoretic separation): 79.4%
cytokines (TNF-α, IFN-γ, IFN-α, IFN-β, MIP-1B, IP-10, IL-10, IL-6) ([3]; serum 3 hours post-injection): detectable
cytokines (TNF-α, IFN-γ, IFN-α, IFN-β, MIP-1B, IP-10, IL-10, IL-6) [3, 6]: returned to baseline
mRNA production yield (T7 RNA polymerase [4]): slightly lower
Cas9 expression (cells): largely similar among most analogs except 1007a_D1 and 1007a

COC1C(O[P@]([O-])(=S)OCC2OC(n3cnc4c(=O)[nH]c(N)nc43)C(O)C2O)C(COP(=O)(O)OP(=O)(O)OP(=O)(O)OCC2OC(n3c[n+](C)c4c(=O)[nH]c(N)nc43)C(O)C2O)OC1n1cnc2c(N)ncnc21 (stereo partly drawn) [1007a_D2, m^7G(ppp) Am(ps)G]
relative luciferase expression [5]: a little increased protein expression
cytokines (TNF-α, IFN-γ, IFN-α, IFN-β, MIP-1B, IP-10, IL-10, IL-6) ([3]; serum 3 hours post-injection): detectable
cytokines (TNF-α, IFN-γ, IFN-α, IFN-β, MIP-1B, IP-10, IL-10, IL-6) [3, 6]: returned to baseline
mRNA production yield (T7 RNA polymerase [4]): ~4 mg/mL

COC1C(OP(=O)(O)OCC2OC(n3cnc4c(=O)[nH]c(N)nc43)C(O)C2O)C(COP(=O)(O)OP(=O)([S-])OP(=O)(O)OCC2OC(n3c[n+](C)c4c(=O)[nH]c(N)nc43)C(O)C2O)OC1n1cnc2c(N)ncnc21 (stereo not drawn) [1107a, m^7G(ppsp) Am(p)G]
mRNA full-length purity (T7 RNA polymerase [1]): about 86%
amount of full-length mRNA produced (T7 RNA polymerase [1]): did not reduce
capping efficiency (T7 RNA polymerase [2]; initiator-to-NTP ratio ranging from 1:1 down to 1:1.67): > 90%
production yield for ABE encoding mRNA (T7 RNA polymerase [4]): about 3.3 mg per 1 ml of IVT reaction

Nc1nc2c(ncn2[C@@H]2O[C@H](COP(=O)(O)OP(=O)(O)OP(=O)(O)O)[C@@H](O)[C@H]2O)c(=O)[nH]1 [GTP]
Kd (T7 polymerase): 2 mM

COC1C(OP(=O)(O)OCC2OC(n3cnc4c(=O)[nH]c(N)nc43)C(O)C2O)C(COP(=O)(O)OP(=O)([O-])OP(=O)(O)OCC2OC(n3c[n+](Cc4ccc(Cl)cc4)c4c(=O)[nH]c(N)nc43)C(O)C2O)OC1n1cnc2c(N)ncnc21 (stereo not drawn) [compound 5231, 4-Cl-Bn7G(ppp) Am(p)G]
cytokines (TNF-α, IFN-γ, IFN-α, IFN-β, MIP-1B, IP-10, IL-10, IL-6) ([3]; serum 3 hours post-injection): detectable
cytokines (TNF-α, IFN-γ, IFN-α, IFN-β, MIP-1B, IP-10, IL-10, IL-6) [3, 6]: returned to baseline
mRNA production yield (T7 RNA polymerase [4]): slightly lower

From patent publication US20250084409A1, “COMPOSITIONS AND METHODS FOR CAPPING RNAS” (Verve Therapeutics, Inc., priority 2022, published 2025)
